Source: patent US20260356879A1, “CELASTROL DERIVATIVES” (Celloram Inc., priority 2022, published 2026)
“Also recorded” adds a separate entry of the source. Where two headings read alike, the source gives them in different places.

Experiments:
THP-1 cells = test: LDH release (NLRP3 inflammasome-induced cytotoxicity) in THP-1 cells; assay type: cell-based, human; settings: for inhibition of inflammasome-induced pyroptosis: human THP-1 macrophages, overall comparison with MCC950, FIG. 7A-7C
Source text: Pyroptosis, a pro-inflammatory form of cell death, is triggered by the activation of NLRP3 inflammasome components (GSDMD and Caspase-1), leading to the release of pro-inflammatory cytokines IL-1β and IL-18, as well as damage-associated molecular patterns (DAMPs). This process elicits a cascade of inflammatory responses, which can persist if dysregulated in affected tissues. Given the significant inhibitory potential of CLM-022 against NLRP3 inflammasome and IL-1β secretion, it was proposed that CLM-022 could effectively enhance cell viability by inhibiting pyroptosis in the context of inflammation and inflammasome activation. This example illustrates a comparative study of the abilities of CLM-022 and MCC950 to protect THP-1 cells from inflammasome-induced pyroptosis.
After LPS and Nigericin treatment, THP-1 cells were treated with either CLM-022 or MCC950 over a dosage range of 0 μM to 10 μM and cell viability was determined by impermeant live/dead staining dye and flow cytometric analysis. Additionally, NLRP3 inflammasome-induced cytotoxicity was investigated by measuring the level of LDH in the conditioned media after the CLM-022 and MCC950 treatments. Further, Western blotting of samples from the THP-1 cell viability assays was carried out to determine levels of the pyroptosis-mediating molecules, GSDMD and Caspase-1.

NLRP3 inflammasome [1] = test: IL-1β secretion in THP-1 macrophages, LPS + Nigericin; assay type: cell-based; settings: human THP-1 macrophages, FIG. 5C
Experimental: This example illustrates a comparative study of CLM-022 and MCC950 in inhibiting NLRP3 inflammasome activity in mouse and human macrophages.
To confirm the inhibitory effect of CLM-022 in human macrophages, THP-1 cells, a human leukemia monocytic cell line, were differentiated into macrophages using phorbol 12-myristate-13-acetate (PMA, 100 ng/ml) treatment for one day. The THP-1 macrophages were then treated with LPS (100 ng/ml) for 3 hours to induce the expression of inflammatory genes. Subsequently, the THP-1 cells were treated with CLM-022 or MCC950 in a dose range of 0-10 μM for 30 minutes. Then, to fully activate NLRP3-dependent inflammasome activity, Nigericin (10 μM) was added to the THP-1 cells for an additional 60 min.

NF-kB = NF-kB luciferase reporter assay (HepG2 NF-kB-Luc reporter cells, IL-1β stimulated); assay type: cell-based, human; settings: for IC50: Homo sapiens
Experimental: HepG2 NF-kB-Luc reporter cells stimulated with IL-1β (20 ng/ml) and the relative NF-kB luciferase activity (RLU) was determined for each of celastrol (compound 1) and each of the exemplary derivative compounds at the following eight point concentrations: 10 μM, 5 μM, 2.5 μM, 1.25 μM, 0.63 μM, 0.31 μM, 0.16 μM, 0.016 μM, and 0 μM). Assay values were plotted (not shown) and IC50 inhibitory concentrations were calculated after normalization using Prizm 9.0 software.
This example illustrates a study of the anti-inflammatory potential of an exemplary celastrol derivative of the present disclosure (compound 22) using an NF-κB luciferase promoter reporter gene assay in the human liver cancer cell line, HepG2.
NF-kB luciferase reporter assay: The celastrol derivative, compound 22 (prepared as described in Example 13) and the parent molecule, compound 1 (celastrol), were freshly dissolved in DMSO. HepG2 NF-κB reporter cells were seeded (2.5×10^4/well) in 96-well plate and then pre-treated with either compound 22 or compound 1 at the 8-point concentrations of 10, 5, 2.5, 1.25, 0.63, 0.31, 0.16, 0.016, or 0 μM, respectively, and the NF-κB promoter was activated by adding IL-1β (20 ng/ml) to the cells. After 18 hours, the cells were harvested by adding the 1× passive cell lysis buffer (Promega) and followed by measurement of the relative NF-kB luciferase activity (RLU) using GloMax discover microplate reader (Promega). Inhibitory concentrations (IC50) after normalization using Prizm 9.0 software.

NLRP3 inflammasome [2] = test: NLRP3 inflammasome assay in BMDCs: ASC complex formation (western blot); assay type: cell-based
Experimental: FIG. 2A depicts western blot images showing the relative NLRP3 inflammasome activity of the compounds 22 (CLM-022) and 1 (CLM-001) by detecting the level of cellular ASC complex and the mature form of IL-1β (15 kDa) in a conditioned media of BMDCs treated with LPS (100 ng/ml) for 3 hours and then the compound at 50 nM, 100 nM, and 500 nM concentration for 30 min, followed by ATP or Nigericin. ASC monomer and β-Actin proteins were used as controls. FIG. 2B depict plots of results showing secreted IL-1β levels measured by ELISA using conditioned media of BMDC treated with the compound 22 or compound 1 at 63 nM, 125 nM, 250 nM, and 500 nM, under NLRP3 inflammasome activation induced either by LPS+ATP or LPS+Nigericin. FIG. 2C depict plots of results showing secreted TNF-α levels measured by ELISA using conditioned media of BMDC treated with the compound 22 or compound 1 at 63 nM, 125 nM, 250 nM, and 500 nM, under NLRP3 inflammasome activation induced either by LPS+ATP or LPS+Nigericin. […]
1. […] After 30 minutes Nigericin (10 μM) or ATP (5 mM) was added (Signal 2) and the level of NLRP3-dependent inflammasome activity was determined by western blotting the treated cells with ASC complex (>48 kDa). […]

IC50 (NLRP3 inflammasome [1]; LPS (100 ng/ml) + Nigericin (10 μM), 0-10 μM, read-out: IC50 for inhibition of IL-1β secretion): 159 nM | IC50 (NF-kB; HepG2 NF-kB-Luc reporter cells, IL-1β (20 ng/ml), Example 13, read-out: NF-kB IC50): 268 nM | % IC50 relative to Celastrol (NF-kB; relative to celastrol (compound 1)): 51% | IC50 lower than that of compound 1 by (NF-kB; vs compound 1 (IC50=528 nM), Example 14): 50%
SMILES: CC1=C(O)C(=O)C=C2C1=CC=C1[C@@]2(C)CC[C@@]2(C)[C@@H]3C[C@](C)(N(C)C(=O)C(=O)N(C)C)CC[C@]3(C)CC[C@]12C [Compound 22, N′-[(2R,4aS,6aR,6aS,14aS,14bR)-10-hydroxy-2,4a,6a,6a,9,14a-hexamethyl-11-oxo-1,3,4,5,6,13,14,14b-octahydropicen-2-yl]-N,N,N′-trimethyl-oxamide]
IC50 (THP-1 cells; Homo sapiens, THP-1, LPS and Nigericin, 0 μM to 10 μM, FIG. 7B, read-out: IC50 for LDH release (normalized)): 12.4 nM | inhibition of LDH release (THP-1 cells; THP-1, LPS and Nigericin, FIG. 7B): significantly inhibited release of LDH | higher potency relative to MCC950 in preventing pyroptosis (THP-1 cells; from LDH release IC50 values, FIG. 7B): 10 fold | inhibition of inflammasome-induced pyroptosis (THP-1 cells): greater capacity to inhibit inflammasome-induced pyroptosis in human THP-1 macrophages | inhibition of inflammasome-induced pyroptosis (THP-1 cells; listed as CLM-022): greater capacity than the benchmark molecule, MCC950, to inhibit inflammasome-induced pyroptosis in human THP-1 macrophages | inhibition of IL-1β secretion (NLRP3 inflammasome [1]; LPS + Nigericin): robustly inhibited IL-1β secretion | IC50 (NF-kB; HepG2, IL-1β (20 ng/ml), 18 hours, normalized, Example 14, FIG. 1B, read-out: IC50 for NF-κB promoter activity): 268 nM | inhibition of NF-kB inflammatory signaling (NF-kB; IL-1β-induced, HepG2, FIG. 1): robust inhibitory potential for IL-1β-induced NF-kB inflammatory signaling pathway superior to celastrol (compound 1) at low concentrations; also recorded: robustly inhibits NF-κB inflammatory signaling | ASC complex formation (NLRP3 inflammasome [2]; BMDCs, 50, 100, 500 nM, LPS then ATP or Nigericin, FIG. 2A): suppressed ASC complex formation more strongly than compound 1 | NLRP3 inflammasome activity (NLRP3 inflammasome [2]; BMDCs, compared with compound 1): robust inhibitory function on NLRP3 inflammasome activity that was better than that observed for the parental molecule celastrol (compound 1)
